Assay results reported in patent US11542492B2 (Celgene CAR LLC, priority 2009, dated 2023).
pIC50: −log10 of the molar value.

Columns and labels:
[1] = biological target: T1, HCV NS3/4A 1b protease enzyme (wild type) (Hepatitis C virus genotype 1b, UniProt P26663); assay: HCV protease FRET assay (IC50_APP), wild type NS3/4A 1b; assay type: biochemical
T1 construct: 10× stocks of NS3/4A protease enzyme from Bioenza (Mountain View, Calif.); purchased Bioenza
Method in brief: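 Wild-type NS3/4A 1b protease with serially diluted compounds (from 50% DMSO stocks); reaction started at once with FRET substrate and followed 60-90 min at ex485/em520. Initial velocities (0 to 15+ min) normalised to no-inhibitor and no-enzyme controls; apparent IC50 from variable-slope log[inhibitor]-response fit.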

[2] = biological target: T2, HCV NS3 protease WT 1b (Hepatitis C virus genotype 1b, UniProt P26663); assay: MALDI MS of intact HCV protease 1b WT incubated with compound; assay type: binding
T2 construct: The single-chain proteolytic domain (NS4A21-32-GSGS-NS33-631) was cloned into pET-14b; His tag (own knowledge of vector pET-14b); made in house; host or cells: Escherichia coli BL21
Description: Intact HCV (protease) 1bWT was incubated for 1 hr at a 10× fold excess of XVI-26 to protein. 3 ul aliquots of the samples were diluted with 10 ul of 0.1% TFA prior to micro C4 ZipTipping directly onto the MALDI target using Sinapinic acid as the desorption matrix (10 mg/mL in 0.1% TFA:Acetonitrile 50:50). […] Due to likely protein misfolding during protein purification, a small portion of the misfolded protein was not modified.
In order to determine whether the modification of the protein occurred at lysine, the pH from the above experiment was increased from 7.4 to 10.0. Because the compound lysine adduct would be an amide any increase in pH would have minimal effect on the modified protein. If however, the modification occurred at cysteine the resultant thioester bond would be unstable and the compound would hydrolyze off the protein.
(§1) Intact HCV (protease) 1bWT, C159S, and C159S/K136A were incubated for 1 hr at a 10× fold excess of XVI-26 to protein. 3 μl aliquots of the samples were diluted with 10 μl of 0.1% TFA prior to micro C4 ZipTipping directly onto the MALDI target using Sinapinic acid as the desorption matrix (10 mg/mL in 0.1% TFA:Acetonitrile 50:50).
Intact HCV (protease) WT1b was incubated for 1 hr at a 10× fold excess of XVI-1 (mw=782.87) to protein. 3 μl aliquots of the samples were diluted with 10 μl of 0.1% TFA prior to micro C4 ZipTipping directly onto the MALDI target using Sinapinic acid as the desorption matrix (10 mg/mL in 0.1% TFA:Acetonitrile 50:50). […] Due to some protein misfolding during the purification of the protein, the unfolded portion of the protein can not react with XVI-1.

[3] = biological target: T3, HCV protease C159S mutant (Hepatitis C virus genotype 1b, UniProt P26663, C1185S); assay: MALDI MS of intact HCV protease C159S incubated with compound; assay type: binding; conditions: 1 hr, 10× fold excess
T3 construct: The single-chain proteolytic domain (NS4A21-32-GSGS-NS33-631) was cloned into pET-14b; His tag (own knowledge of vector pET-14b); made in house; host or cells: Escherichia coli BL21
Description: as §1

[4] = biological target: T4, HCV C159S/K136A double mutant (Hepatitis C virus genotype 1b, UniProt P26663, C1185S/K1162A); assay: MALDI MS of intact HCV protease C159S/K136A double mutant; assay type: binding; conditions: 1 hr, 10× fold excess
T4 construct: The single-chain proteolytic domain (NS4A21-32-GSGS-NS33-631) was cloned into pET-14b; His tag (own knowledge of vector pET-14b); made in house; host or cells: Escherichia coli BL21
Description: as §1

[5] = test system: NS3/4A self-cleavage activity in Huh-7 cells; assay: Prolonged duration of action (washout), NS3 self-cleavage in transfected Huh-7 cells; assay type: cell-based; conditions: FIG. 11
Description: Parental Huh-7 cells were plated at a density of 1.75×10^6 cells per 100 mm dish in media with 10% FBS. The following day, cells were transfected in OptiMEM using 28 ug of plasmid and 112 ul of Lipfectamine 2000 (Invitrogen), according to manufacturer's instructions. After 4 hours incubation with the transfection complex, the media was changed to Replicon Assay Medium (RPMI supplemented with 5% FBS, 1× non-essential amino acids and pen/strep). The next morning, the cells were trypsinized, counted and replated in Replicon Media at a density of 20,000 cells/well of a 12 well plate (4 wells per genotype). Cells were allowed to adhere to the plate, then the media was removed and replaced with 1 ml media containing XVI-26, (3 wells per compound) and 0.02% DMSO and returned to the incubator overnight. Sixteen hours later 1 treated well from each genotype (0 hr sample) and 1 untreated well were washed with PBS, then lysed and scraped into 30 ul of Cell Extraction Buffer (Biosource, Camarillo, Calif.) plus Complete Protease Inhibitor (Roche, Indianapolis, Ind.). The remaining wells were rinsed 2× with PBS then fed with Replicon Media and returned to the incubator. […] Lysates were resolved using standard immunoblotting methods and NS3 self-cleavage activity was assessed and quantified relative to untreated samples.

[6] = biological target: T5, NS3/4A C159S (Hepatitis C virus genotype 1b, UniProt Q9WMX2, C1185S); assay: Lysine modification using biotinylated covalent probe in cell lysate; assay type: binding, HCV; conditions: FIG. 10, 1 μM probe, 1h
T5 construct: expressed in transfected cells
Excerpt: The pCI-Neo-FLAG-NS3/4a-WT plasmid was constructed by amplifying the NS3 and 4a sequence from the pFK-I389-luc-ubi-neo-NS3-3′ET vector using Accuprime Pfx (Invitrogen) according to manufacturer's instructions and with primers that added an NheI site and FLAG epitope tag to the 5′ end and an XbaI site to the 3′ end.
The resulting PCR product was then digested with NheI and XbaI and ligated into the same sites of the pCI-Neo vector (Invitrogen). The WT construct was then used as a template for site-directed mutagenesis using the Quickchange II Site-Directed Mutagenesis kit […] and primers containing the K136R or C159S mutations (below).
Lysates were treated with 1 μM of biotinylated covalent probe, XVI-27, for 1h and immunoprecipitated with anti-NS3 antibody (mouse). Immunoblots were probed with streptavidin and anti-NS3 antibody (goat). Successful modification by the covalent probe was assessed and quantified relative to WT NS3.

[7] = test system: HCT116; assay: HCT116-WB assay; assay type: cell-based; conditions: Homo sapiens, HCT-116; read-out: HCT116-WB Inhibition Designation
[8] = biological target: PI3Kβ (Homo sapiens, UniProt P42338); assay: MALDI MS of intact PI3Kβ incubated with compound; assay type: binding; conditions: 3 hr, 10× fold excess of compound to protein
Chain of PI3Kβ (P42338 whole entry): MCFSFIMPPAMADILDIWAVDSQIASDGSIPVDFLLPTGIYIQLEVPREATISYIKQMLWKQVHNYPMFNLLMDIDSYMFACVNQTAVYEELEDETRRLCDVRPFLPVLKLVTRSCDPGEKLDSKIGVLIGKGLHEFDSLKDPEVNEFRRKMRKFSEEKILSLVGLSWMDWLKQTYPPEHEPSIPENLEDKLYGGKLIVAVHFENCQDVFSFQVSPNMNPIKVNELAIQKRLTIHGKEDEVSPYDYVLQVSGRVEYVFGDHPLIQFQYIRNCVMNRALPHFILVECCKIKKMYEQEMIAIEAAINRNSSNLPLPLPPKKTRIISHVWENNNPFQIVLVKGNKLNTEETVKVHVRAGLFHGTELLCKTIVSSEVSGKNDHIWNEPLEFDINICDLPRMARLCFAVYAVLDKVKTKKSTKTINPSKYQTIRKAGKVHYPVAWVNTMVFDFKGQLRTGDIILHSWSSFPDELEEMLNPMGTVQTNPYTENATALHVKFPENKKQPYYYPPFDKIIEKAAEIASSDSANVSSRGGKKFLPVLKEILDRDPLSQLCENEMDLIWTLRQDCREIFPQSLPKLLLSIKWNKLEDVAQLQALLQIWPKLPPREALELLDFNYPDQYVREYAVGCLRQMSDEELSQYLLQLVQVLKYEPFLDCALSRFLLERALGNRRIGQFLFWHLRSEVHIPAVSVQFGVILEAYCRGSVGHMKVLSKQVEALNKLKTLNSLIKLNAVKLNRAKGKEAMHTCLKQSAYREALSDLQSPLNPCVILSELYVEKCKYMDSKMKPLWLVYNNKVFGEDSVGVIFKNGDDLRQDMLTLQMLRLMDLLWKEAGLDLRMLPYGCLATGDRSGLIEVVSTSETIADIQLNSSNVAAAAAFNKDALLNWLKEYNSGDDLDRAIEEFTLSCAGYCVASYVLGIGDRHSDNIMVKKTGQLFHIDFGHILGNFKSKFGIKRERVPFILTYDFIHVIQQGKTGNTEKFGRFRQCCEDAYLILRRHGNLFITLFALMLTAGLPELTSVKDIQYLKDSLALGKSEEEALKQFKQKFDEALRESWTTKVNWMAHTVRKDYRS
Chain of PI3Kβ (P27986 whole entry partner): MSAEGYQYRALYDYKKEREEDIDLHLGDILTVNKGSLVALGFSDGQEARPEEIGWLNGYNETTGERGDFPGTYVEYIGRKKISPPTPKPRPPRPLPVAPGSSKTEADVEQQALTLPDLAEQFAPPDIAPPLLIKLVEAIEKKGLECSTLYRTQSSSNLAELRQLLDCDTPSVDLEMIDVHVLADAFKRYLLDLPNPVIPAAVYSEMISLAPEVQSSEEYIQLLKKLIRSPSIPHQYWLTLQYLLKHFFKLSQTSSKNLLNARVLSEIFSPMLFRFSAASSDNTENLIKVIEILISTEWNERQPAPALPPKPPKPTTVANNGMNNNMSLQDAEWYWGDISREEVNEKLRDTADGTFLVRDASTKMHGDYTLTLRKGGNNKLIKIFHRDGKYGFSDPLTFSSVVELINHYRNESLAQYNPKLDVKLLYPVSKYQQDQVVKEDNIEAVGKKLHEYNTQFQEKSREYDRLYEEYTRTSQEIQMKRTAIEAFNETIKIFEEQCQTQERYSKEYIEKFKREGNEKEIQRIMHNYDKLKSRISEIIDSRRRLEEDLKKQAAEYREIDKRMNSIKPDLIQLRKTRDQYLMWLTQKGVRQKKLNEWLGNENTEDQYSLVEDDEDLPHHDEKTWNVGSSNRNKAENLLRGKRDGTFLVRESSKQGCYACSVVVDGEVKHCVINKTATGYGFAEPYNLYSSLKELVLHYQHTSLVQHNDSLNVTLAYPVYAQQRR
Description: Intact PI3Kβ was incubated for 3 hr at a 10× fold access of compound to protein. 5 μL aliquots of the samples were diluted with 15 μL of 0.1% TFA prior to micro C4 ZipTipping directly onto the MALDI target using Sinapinic acid as the desorption matrix (10 mg/mL in 0.1% TFA:Acetonitrile 50:50). Spots were then analyzed via MALDI-MS. XXII-10 modified PI3Kβ 100% by 3h. XXII-8, XXII-6, XXIII-4, and XXIII-3 each provided between about 35% to about 55% modification.

C=C[C@@H]1C[C@]1(NC(=O)[C@@H]1CC(Oc2cc(-c3ccccc3)nc3cc(OC)ccc23)CN1C(=O)[C@H](CCC(=O)N1CCC1=O)NC(=O)OC(C)(C)C)C(=O)NS(=O)(=O)C1CC1 (stereo partly drawn) [XVI-26]
pIC50 [1]: > 9.00
stability of adduct at raised pH ([2]; 1 hour at pH 7.4 followed by 2 hours at pH 10): did not come off of the protein
MS_HCVNS3_INTACT_NS3 WT 1b 1 HR ([2]; WT 1b, 1 HR): H (>50% and ≤70% modification)
positive mass shift of HCV C159S [3]: 770 Da
modification of HCV C159S/K136A [4]: no modification
duration of action after washout [5]: prolonged duration of action

C=C[C@H]1C[C@@]1(NC(=O)[C@@H]1CC(Oc2nccc3cc(OC)ccc23)CN1C(=O)[C@H](CCC(=O)N1C[C@@H]2C[C@H]1C(=O)O2)NC(=O)CCCC(=O)NCCCOCCOCCOCCCNC(=O)CCCC[C@@H]1SC[C@@H]2NC(=O)N[C@@H]21)C(=O)NS(=O)(=O)C1CC1 (stereo partly drawn) [XVI-27, N1-((2S)-1-((2S)-2-((1S,2R)-1-(cyclopropylsulfonylcarbamoyl)-2-vinylcyclopropylcarbamoyl)-4-(6-methoxyisoquinolin-1-yloxy)pyrrolidin-1-yl)-1,5-dioxo-5-((1S,4S)-3-oxo-2-oxa-5-azabicyclo[2.2.1]heptan-5-yl)pentan-2-yl)-N5-(15-oxo-19-((3aS,4S,6aR)-2-oxohexahydro-1H-thieno[3,4-d]imidazol-4-yl)-4,7,10-trioxa-14-azanonadecyl)glutaramide]
modification by covalent probe [6]: modifying NS3/4A C159S

C=CS(=O)(=O)N(C)Cc1cc2nc(-c3cccc(O)c3)nc(N3CCOCC3)c2s1 [XXII-10]
pIC50 [7]: 6.00 to 7.00
modification of PI3Kβ [8]: 100%
